Experiments:
[1] = test system: transgenic soybean plants (T0 cuttings) expressing heterologous HPPD; assay: Greenhouse testing of transgenic soybean plants (T0 cuttings); assay type: in vivo, Glycine max; design: key: % injury: 0% = no injury, 100% = complete death; details: two weeks after treatment
Description: (§1) Transgenic plants expressing heterologous HPPD or HST enzymes are tested for tolerance against coumarone-derivative herbicides in greenhouse experiments.
(§2) For post emergence treatment, the test plants are first grown to a height of 3 to 15 cm, depending on the plant habit, and only then treated with the herbicides. For this purpose, the test plants are either sown directly and grown in the same containers, or they are first grown separately and transplanted into the test containers a few days prior to treatment.
(§3) For testing of T0 plants, cuttings can be used. In the case of soybean plants, an optimal shoot for cutting is about 7.5 to 10 cm tall, with at least two nodes present. Each cutting is taken from the original transformant (mother plant) and dipped into rooting hormone powder (indole-3-butyric acid, IBA). The cutting is then placed in oasis wedges inside a bio-dome. Wild type cuttings are also taken simultaneously to serve as controls. The cuttings are kept in the biodome for 5-7 days and then transplanted to pots and then acclimated in the growth chamber for two more days. Subsequently, the cuttings are transferred to the greenhouse, acclimated for approximately 4 days, and then subjected to spray tests as indicated.
Depending on the species, the plants are kept at 10-25° C. or 20-35° C. The test period extends over 3 weeks. During this time, the plants are tended and their response to the individual treatments is evaluated. Herbicide injury evaluations are taken at 2 and 3 weeks after treatment. Plant injury is rated on a scale of 0 to 9, 0 being no injury and 9 being complete death. Tolerance to coumarone-derivative herbicides can also be assessed in Arabidopsis. In this case transgenic Arabidopsis thaliana plants are assayed for improved tolerance to coumarone-derivative herbicides in 48-well plates. Seeds are surface sterilized by stirring for 5 min in ethanol+water (70+30 by volume), rinsing one time with ethanol+water (70+30 by volume) and two times with a sterile, deionized water. The seeds are resuspended in 0.1% agar dissolved in water (w/v). Four to five seeds per well are plated on solid nutrient medium consisting of half-strength Murashige Skoog nutrient solution, pH 5.8 (Murashige and Skoog (1962) Physiologia Plantarum 15: 473-497). Compounds are dissolved in dimethylsulfoxid (DMSO) and added to the medium prior solidification (final DMSO concentration 0.1%). Multi well plates are incubated in a growth chamber at 22° C., 75% relative humidity and 110 μmol Phot * m-2 * s-1 with 14: 10 h light: dark photoperiod. Seven to ten days after seeding growth inhibition is evaluated by comparison to wild type plants. Tolerance factor is calculated by dividing the plant growth IC50 value of transgenic plants containing a HPPD and/or HST sequence by that of wildtype plants. Additionally, T1 and T2 transgenic Arabidopsis plants can be tested for improved tolerance to coumarone-derivative herbicides in a greenhouse studies. Herbicide injury scoring is done 2-3 weeks after treatment and is rated on a scale of 0 to 100%, 0% being no injury and 100% being complete death.

[2] = test system: Wild type soybean plants; assay: Greenhouse herbicide spray test, non-transformed soybean cuttings; assay type: in vivo, Glycine max; details: Wild type (no transgene), two weeks after herbicide treatment
Description: as §1, §2, §3
Depending on the species, the plants are kept at 10-25° C. or 20-35° C. The test period extends over 3 weeks. During this time, the plants are tended and their response to the individual treatments is evaluated. Herbicide injury evaluations are taken at 2 and 3 weeks after treatment. Plant injury is rated on a scale of 0 to 9, 0 being no injury and 9 being complete death. Tolerance to coumarone-derivative herbicides can also be assessed in Arabidopsis. In this case transgenic Arabidopsis thaliana plants are assayed for improved tolerance to coumarone-derivative herbicides in 48-well plates. […] Seven to ten days after seeding growth inhibition is evaluated by comparison to wild type plants. Tolerance factor is calculated by dividing the plant growth IC50 value of transgenic plants containing a HPPD and/or HST sequence by that of wildtype plants. […]

Measured: Injury evaluation

CC1=NOC(c2c(Cl)ccc(C3=C(O)c4ncccc4N(CC(F)F)S3(=O)=O)c2Cl)C1 (stereo not drawn) [Inhibitor 1, 3-[2,4-dichloro-3-(3-methyl-4,5-dihydroisoxazol-5-yl)phenyl]-1-(2,2-difluoroethyl)-2,2-dioxo-pyrido[3,2-c]thiazin-4-ol]
10: [1]; event AV4553 (Hordeum HPPD), dose 125 g/ha | [1]; event AV4553 (Hordeum HPPD), dose 250 g/ha | [1]; event LG6156 (Synechocystis HPPD), dose 125 g/ha | [1]; event LG6156 (Synechocystis HPPD), dose 250 g/ha | [1]; event LJ383, dose 62 g/ha | [1]; event LJ383, dose 125 g/ha | [1]; event LJ409, dose 62 g/ha | [1]; event LJ409, dose 125 g/ha
15: [1]; event LJ409, dose 250 g/ha
5: [1]; event HT1833 (Arabidopsis HPPD_M335H, plastidic), dose 125 g/ha | [1]; event HT1833 (Arabidopsis HPPD_M335H, plastidic), dose 250 g/ha
0: [1]; event AV4287 (marked: tested at a half rate), dose line 62 g/ha | [1]; event AV4287 (marked: tested at a half rate), dose line 125 g/ha | [1]; event AV4287 (marked: tested at a half rate), dose line 250 g/ha | [1]; event AV4553 (Hordeum HPPD), dose 62 g/ha | [1]; event HT1833 (Arabidopsis HPPD_M335H, plastidic), dose 62 g/ha | [1]; event LG5831** (Arabidopsis HPPD_M335H, plastidic), marked: tested at a half rate, dose line 62 g/ha | [1]; event LG5831** (Arabidopsis HPPD_M335H, plastidic), marked: tested at a half rate, dose line 125 g/ha | [1]; event LG5831** (Arabidopsis HPPD_M335H, plastidic), marked: tested at a half rate, dose line 250 g/ha | [1]; event LG6156 (Synechocystis HPPD), dose 62 g/ha | [1]; event LJ387 (Hordeum HPPD), dose 62 g/ha | [1]; event LJ387 (Hordeum HPPD), dose 125 g/ha | [1]; event LJ387 (Hordeum HPPD), dose 250 g/ha
68: [2]; dose 250 g/ha
20: [1]; event AV4283 (probably Synechococcus HPPD**, marked: tested at a half rate), dose line 62 g/ha | [1]; event AV4283 (probably Synechococcus HPPD**, marked: tested at a half rate), dose line 125 g/ha | [1]; event AV4283 (probably Synechococcus HPPD**, marked: tested at a half rate), dose line 250 g/ha | [1]; event LJ383, dose 250 g/ha
44: [2]; dose 125 g/ha
26: [2]; dose 62 g/ha

From patent US10801035B2, “Plants having increased tolerance to herbicides” (BASF SE, priority 2011, dated 2020)
